Holding throughout (test): Peptidase detection on Columbia medium with substrate, spot inoculation
Assay type in all cases: cell-based

Experiment [1] deals with Bacillus subtilis NCTC 9 372. Conditions: 40 mg substrate in 400 ml Columbia medium; 24 hours at 37° C.; visual reading. On the procedure:
(§1) A weight of 40 mg of substrate was dissolved in 4 ml of dimethyl sulfoxide and added to 400 ml of previously autoclaved Columbia medium. The medium was distributed into Petri dishes 90 mm in diameter, in a proportion of 20 ml per dish. Seventeen strains of microorganisms stemming from collections and belonging to various species of bacteria and yeasts are inoculated in spots of approximately 10 000 colony-forming units. The media are incubated for 24 hours at 37° C., and then the colonies formed are examined visually.

In experiment [2] the test system is Candida albicans ATCC 90 028. Conditions: 40 mg substrate in 400 ml Columbia medium; 24 hours at 37° C.; visual reading. Here is the method: as §1
In experiment [3] the test system is Candida glabrata NCPF 3 943. As to conditions: 40 mg substrate in 400 ml Columbia medium; 24 hours at 37° C.; visual reading. On the procedure:
as §1

In experiment [4] the test system is Enterobacter cloacae NCTC 11 936. Conditions: 40 mg substrate in 400 ml Columbia medium, 24 hours at 37° C., visual reading. Here is the method: as §1
The subject of experiment [5] is Enterococcus faecalis NCTC 775. Conditions: 40 mg substrate in 400 ml Columbia medium, 24 hours at 37° C., visual reading. Here is the method:
as §1

The test system of experiment [6] is Enterococcus faecium NCTC 7 171. As to conditions: 40 mg substrate in 400 ml Columbia medium; 24 hours at 37° C.; visual reading. Here is the method:
as §1

For experiment [7], the system named is Escherichia coli NCTC 10 418. Conditions: 40 mg substrate in 400 ml Columbia medium, 24 hours at 37° C., visual reading. On the procedure:
as §1

The subject of experiment [8] is Listeria monocytogenes NCTC 11 994. Conditions: 40 mg substrate in 400 ml Columbia medium; 24 hours at 37° C.; visual reading. Here is the method: as §1
Experiment [9] deals with Providencia rettgeri NCTC 7 475. Conditions: 40 mg substrate in 400 ml Columbia medium; 24 hours at 37° C.; visual reading. On the procedure:
as §1

Experiment [10] deals with Pseudomonas aeruginosa NCTC 10 662. Conditions: 40 mg substrate in 400 ml Columbia medium; 24 hours at 37° C.; visual reading. Here is the method:
as §1

The test system of experiment [11] is Salmonella typhimurium NCTC 74. Conditions: 40 mg substrate in 400 ml Columbia medium; 24 hours at 37° C.; visual reading. On the procedure:
as §1

The test system of experiment [12] is Serratia marcescens NCTC 10 211. Conditions: 40 mg substrate in 400 ml Columbia medium, 24 hours at 37° C., visual reading. Here is the method:
as §1

Experiment [13] has as its system Staphylococcus aureus NCTC 11 939. Conditions: 40 mg substrate in 400 ml Columbia medium; 24 hours at 37° C.; visual reading. On the procedure: as §1
The test system of experiment [14] is Staphylococcus aureus NCTC 6 571. As to conditions: 40 mg substrate in 400 ml Columbia medium; 24 hours at 37° C.; visual reading. Here is the method: as §1
Experiment [15] concerns Staphylococcus epidermidis NCTC 11 047. As to conditions: 40 mg substrate in 400 ml Columbia medium; 24 hours at 37° C.; visual reading. Here is the method: as §1
Experiment [16] has as its system Streptococcus pyogenes NCTC 8 306. As to conditions: 40 mg substrate in 400 ml Columbia medium; 24 hours at 37° C.; visual reading. Here is the method: as §1
For experiment [17], the system named is Yersinia enterocolitica NCTC 11 176. Conditions: 40 mg substrate in 400 ml Columbia medium; 24 hours at 37° C.; visual reading. On the procedure: as §1

Consider “Glycyl-2-(4′-aminostyryl)-N-methyl-benzothiazolinium iodide [Gly-ASBM^+]”, for which the Growth in [1] was 2; in experiment [2], 1; in [3] it was 0.5; in [4], 2; in experiment [5] it was 1; in [6], 1. Also, the Growth was determined as 2 in experiment [7]; 1 in experiment [8]; 2 in experiment [9]; 2 in [10]; 2 in experiment [11]; 2 in experiment [12]. The Growth in experiment [13] is recorded as 1; in experiment [14], 2; in experiment [15], 1; in [16], 1; in experiment [17], 2. The Color result in [4] (colony color) is on record as “Pale”; in experiment [5] (colony color), “Pale”; in [7] (colony color), “Pale”; in [12] (colony color), “Orange”.
